Values joined by “and” are separate entries in the source; they are usually repeats but may differ in a detail not shown here. Equal entries are not always repeated.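 Each compound was tested at five concentrations against cells in 96-well plates for 48 hours. Here, GI50 denotes the concentration required for 50% inhibition of growth. TGI: concentration producing complete growth inhibition.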
What was measured:
Experiment in all cases: NCI anticancer screen, dose series, 48 h
SN12C renal = tested on: SN12C renal
ACHN renal = tested on: ACHN renal
COLO 205 colon = tested on: COLO 205 colon
HCC-2998 colon = tested on: HCC-2998 colon
SF-295 CNS = tested on: SF-295 CNS
HT29 colon = tested on: HT29 colon
UO-31 renal = tested on: UO-31 renal
SK-MEL-2 melanoma = tested on: SK-MEL-2 melanoma

Row | SMILES | TGI (SN12C renal) | TGI (ACHN renal) | TGI (COLO 205 colon) | TGI (HCC-2998 colon) | TGI (SF-295 CNS) | TGI (HT29 colon) | TGI (UO-31 renal) | TGI (SK-MEL-2 melanoma) | GI50 (SK-MEL-2 melanoma) | GI50 (SN12C renal) [µM] | GI50 (ACHN renal) [µM] | GI50 (COLO 205 colon) [µM] | GI50 (HCC-2998 colon) [µM] | GI50 (SF-295 CNS) [µM] | GI50 (HT29 colon) [µM] | GI50 (UO-31 renal) [µM]
1 | Nc1ccc(S(=O)(=O)Nc2nccs2)cc1 | > 100 µM | > 100 µM | > 100 µM | > 100 µM | > 100 µM | > 100 µM | > 100 µM | > 100 µM | – | – | – | – | – | – | – | –
2 | CCOC(=O)NC(Nc1cccc(C(F)(F)F)c1)(C(F)(F)F)C(F)(F)F | > 100 µM | > 100 µM | > 100 µM | > 100 µM | > 100 µM | > 100 µM | > 100 µM | > 100 µM | – | – | – | – | – | – | – | –
3 | Cc1ccc2c(c1)C(=O)C1(C2)Cc2cccc(C)c2C1=O (centres undefined) | > 100 µM | > 100 µM | > 100 µM | > 100 µM | > 100 µM | > 100 µM | > 100 µM | – | – | – | – | – | – | – | – | –
4 | COc1ccc2c(cnc3c4cc(OC)c(OC)cc4ccc23)c1 | > 100 µM | > 100 µM | > 100 µM | > 100 µM | > 100 µM | > 100 µM | > 100 µM | > 100 µM | – | – | – | – | – | – | – | –
5 | C=C(Cl)C(C)(Cl)CCC(Br)C(C)(C)Cl (centres undefined) | 31.6 µM | 31.8 µM | 31.8 µM | 34.2 µM | 88.6 µM | 29.5 µM | 29.3 µM | 37.6 µM | – | – | – | – | – | – | – | –
6 | COC1C=COC2(C)Oc3c(C)c(O)c4c(O)c(c(C5SCCS5)c(O)c4c3C2=O)NC(=O)C(C)=C/C=C\C(C)C2OC(C)(C)OC(C2C)C(C)C(OC(C)=O)C1C (centres undefined) | 16.6 µM | 6.53 µM | > 100 µM | 20.2 µM | 28.7 µM | – | 32.6 µM | 23.2 µM | – | – | – | – | – | – | – | –
7 | NNC(=O)CSc1nc2ccccc2c(=O)n1N | > 100 µM | 99.1 µM | > 100 µM | > 100 µM | > 100 µM | > 100 µM | > 100 µM | 66.9 µM | – | – | – | – | – | – | – | –
8 | C=C([C@@]1(O)C[C@H]2[C@H](CCC2(OC)OC)[C@@H]2c3ccccc3O[C@@H]21)[Si](C)(C)C | > 100 µM | > 100 µM | > 100 µM | > 100 µM | > 100 µM | > 100 µM | > 100 µM | > 100 µM | – | – | – | – | – | – | – | –
9 | COc1ccc(N2C(=O)CSC2c2c[nH]c3ccccc23)cc1 (centres undefined) | > 100 µM | – | > 100 µM | > 100 µM | > 100 µM | > 100 µM | > 100 µM | – | – | – | – | – | – | – | – | –
10 | COc1ccc2cc(C(C)C(=O)N3CCOC3=O)ccc2c1 (centres undefined) | > 100 µM | > 100 µM | > 100 µM | > 100 µM | > 100 µM | > 100 µM | > 100 µM | – | – | – | – | – | – | – | – | –
11 | CC(C)=CCNc1ncnc2c1ncn2CCC#N | > 100 µM | > 100 µM | > 100 µM | > 100 µM | > 100 µM | > 100 µM | > 100 µM | – | – | – | – | – | – | – | – | –
12 | CC(C)CC(O)P(=O)(O)O (centres undefined) | > 100 µM | > 100 µM | > 100 µM | > 100 µM | > 100 µM | > 100 µM | > 100 µM | > 100 µM | – | – | – | – | – | – | – | –
13 | CCN1CCC(O)(/C=C/c2ccc(C)cc2C)C(C(=O)/C=C/c2ccc(C)cc2C)C1 (centres undefined) | 7.04 µM | 3.47 µM | 4.05 µM | 3.37 µM | 4.94 µM | 5.44 µM | 6.66 µM | 11.1 µM | – | – | – | – | – | – | – | –
14 | CN1[C@@H]2C[C@@H](OC(=O)[C@H](CO)c3ccccc3)C[C@H]1[C@@H]1O[C@@H]12 | > 100 µM | > 100 µM | > 100 µM | – | – | > 100 µM | > 100 µM | > 100 µM | – | – | – | – | – | – | – | –
15 | CSc1cnc2ccccc2c1SC1CN(Cc2ccccc2)c2ccccc2C1=O (centres undefined) | > 100 µM | > 100 µM | > 100 µM | > 100 µM | > 100 µM | > 100 µM | > 100 µM | > 100 µM | – | – | – | – | – | – | – | –
16 | Nc1nc(Cl)cc(NCC2(CO)CCCC2)n1 | > 100 µM | > 100 µM | > 100 µM | > 100 µM | > 100 µM | > 100 µM | > 100 µM | > 100 µM | – | – | – | – | – | – | – | –
17 | C=C1CN2CC(=C)CN(C1)CS(=O)(=O)N1CC(=C)CN(CC(=C)C1)S(=O)(=O)N1CC(=C)CN(CC(=C)C1)S(=O)(=O)C2 | > 100 µM | > 100 µM | > 100 µM | 37.5 µM | > 100 µM | > 100 µM | > 100 µM | > 100 µM | – | – | – | – | – | – | – | –
18 | CN(C)CCOC1(Cc2ccc(F)cc2)CCC(C(C)(C)C)CC1 (centres undefined) | 25 µM and 27.5 µM | 23.5 µM and 25.7 µM | 4.7 µM and 5.66 µM | 12.3 µM and 12.7 µM | 11.9 µM and 13.1 µM | 9.5 µM and 8.3 µM | 19.2 µM and 18.2 µM | 24.4 µM and 8.73 µM | 10.8 µM and 2.78 µM | – | – | – | – | – | – | –
19 | Cc1ccc(S(=O)(=O)NC(=O)N[C@@H](Cc2cnc[nH]2)C(=O)O)cc1 | > 100 µM | > 100 µM | > 100 µM | – | > 100 µM | > 100 µM | > 100 µM | > 100 µM | – | – | – | – | – | – | – | –
20 | CCC(=O)ONC(=O)Cn1ccc([N+](=O)[O-])n1 | > 100 µM | > 100 µM | > 100 µM | > 100 µM | > 100 µM | > 100 µM | > 100 µM | – | – | – | – | – | – | – | – | –
21 | Cc1cc(NCc2ccccc2)c2ccccc2[n+]1CCCCCCCCCC[n+]1c(C)cc(NCc2ccccc2)c2ccccc21 | 1.08 µM | 2.92 µM | 0.665 µM | 1.79 µM | 2.49 µM | 1.63 µM | 7.15 µM | 2.08 µM | – | – | – | – | – | – | – | –
22 | COc1ccc(-c2nn(-c3ccc(NC(=O)Nc4cc(C(F)(F)F)cc(C(F)(F)F)c4)cc3)cc2-c2ccncc2)cc1Cl | 16.6 µM | 58.5 µM | 4.17 µM | 46.7 µM | > 100 µM | > 100 µM | 6.33 µM | 4.38 µM | 1.93 µM | 3.13 | 2.75 | 2.06 | 3.12 | 2.52 | 2.75 | 1.51
23 | COc1cccc(/C=N/n2c(C)n[nH]c2=O)c1 | > 100 µM | > 100 µM | > 100 µM | > 100 µM | > 100 µM | > 100 µM | > 100 µM | > 100 µM | – | – | – | – | – | – | – | –
24 | O=C(O)/C=c1/c2ccccc2n2nc3ccccc3c12 | 88.8 µM | 66.1 µM | 33.5 µM | 84.9 µM | > 100 µM | > 100 µM | > 100 µM | > 100 µM | – | – | – | – | – | – | – | –
25 | COc1ccc(NS(=O)(=O)c2ccc(NC(NC(=O)CC(C)C)(C(F)(F)F)C(F)(F)F)cc2)nn1 | > 100 µM | > 100 µM | > 100 µM | > 100 µM | > 100 µM | > 100 µM | > 100 µM | > 100 µM | – | – | – | – | – | – | – | –
